Experimental data as given in patent publication US11542273B2, “Amide compound having bet proteolysis-inducing action and medicinal application thereof” (MITSUBISHI TANABE PHARMA CORPORATION, priority 2018, dated 2023).

Legend:
[1] = system: human prostate cancer LNCaP cells; assay: Cytotoxic action on cancer cells (WST-8, 96 hr); type: cell-based; settings: Homo sapiens, LNCaP, 96 h, read-out: LNCaP cytotoxic activity: IC50
Outline: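 10% FBS/RPMI1640; overnight plating, 37° C/5% CO2; compound from DMSO diluted in medium; WST-8 viable count vs no-compound control; IC50 by two-point linear interpolation around 50% survival.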

BRD4 protein = BRD4 protein (Homo sapiens (Human), UniProt O60885); assay: BRD4 protein degradation inducing action in cancer cells (immunofluorescence, Operetta); type: cell-based; settings: LNCaP cells, 6 hr treatment, fluorescence intensity
Outline: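 DC50 = compound concentration reducing BRD4 immunofluorescence to 50% of untreated cells, interpolated between the two flanking concentrations. Treatment: LNCaP cells, 6 hr, 10% FBS/RPMI1640, 37° C. Cells were then fixed, permeabilized, stained with anti-BRD4 and Alexa Fluor 488 or 546 secondaries, and imaged.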

| SMILES | DC50 (BRD4 protein) [nM] | IC50 [1] [nM] |
| --- | --- | --- |
| Cc1ncsc1-c1ccc([C@H](C)NC(=O)[C@@H]2C[C@@H](O)CN2C(=O)[C@@H](NC(=O)c2ccc(-c3ccc(C4=N[C@@H](C)c5nnc(C)n5-c5sc6c(c54)CCC6)cc3)cc2)C(C)(C)C)cc1 [Example 200, (2S,4R)-1-[(2S)-2-({4′-[(45)-1,4-dimethyl-8,9-dihydro-4H,7H-cyclopenta[4,5]thieno[3,2-f][1,2,4]triazolo[4,3-a] [1,4]diazepin-6-yl][1,1′-biphenyl]-4-carbonyl}amino)-3,3-dimethylbutanoyl]-4-hydroxy-N-{(1S)-1-[4-(4-methyl-1,3-thiazol-5-yl)phenyl]ethyl}pyrrolidine-2-carboxamide] | 0.66 | 0.38 |
| Cc1ncsc1-c1ccc([C@H](C)NC(=O)[C@@H]2C[C@@H](O)CN2C(=O)[C@@H](NC(=O)c2cc(F)c(-c3ccc(C4=N[C@@H](C)c5nnc(C)n5-c5sc(C)c(C)c54)cc3)cc2Cl)C(C)(C)C)cc1 [Example 204, (2S,4R)-1-[(2S)-2-({5-chloro-2-fluoro-4′-[(6S)-2,3,6,9-tetramethyl-6H-thieno[3,2-f][1,2,4]triazolo[4,3-a] [1,4]diazepin-4-yl][1,1′-biphenyl]-4-carbonyl}amino)-3,3-dimethylbutanoyl]-4-hydroxy-N-{(1S)-1-[4-(4-methyl-1,3-thiazol-5-yl)phenyl]ethyl}pyrrolidine-2-carboxamide] | 0.51 | 0.32 |
| CNC(=O)C[C@@H]1N=C(c2ccc(-c3ccc(C(=O)N[C@H](C(=O)N4C[C@H](O)C[C@H]4C(=O)N[C@@H](C)c4ccc(-c5scnc5C)cc4)C(C)(C)C)cc3F)cc2)c2c(sc(C)c2C)-n2c(C)nnc21 [Example 206, (2S,4R)-1-{(2S)-2-[(2-fluoro-4′-{(6S)-2,3,9-trimethyl-6-[2-(methylamino)-2-oxoethyl]-6H-thieno[3,2-f] [1,2,4]triazolo[4,3-a][1,4]diazepin-4-yl}[1,1′-biphenyl]-4-carbonyl)amino]-3,3-dimethylbutanoyl}-4-hydroxy-N-{(1S)-1-[4-(4-methyl-1,3-thiazol-5-yl)phenyl]ethyl}pyrrolidine-2-carboxamide] | 0.73 | 0.68 |
| Cc1ncsc1-c1ccc([C@H](C)NC(=O)[C@@H]2C[C@@H](O)CN2C(=O)[C@@H](NC(=O)c2ccc(-c3ccc(C4=N[C@@H](CC(=O)N(C)C)c5nnc(C)n5-c5sc(C)c(C)c54)cc3)c(F)c2)C(C)(C)C)cc1 [Example 207, (2S,4R)-1-{(2S)-2-[(4′-{(6S)-6-[2-(dimethylamino)-2-oxoethyl]-2,3,9-trimethyl-6H-thieno [3,2-f][1,2,4]triazolo [4,3-a] [1,4]diazepin-4-yl}-2-fluoro [1,1′-biphenyl]-4-carbonyl)amino]-3,3-dimethylbutanoyl}-4-hydroxy-N-{(1S)-1-[4-(4-methyl-1,3-thiazol-5-yl)phenyl]ethyl}pyrrolidine-2-carboxamide] | 0.62 | 0.43 |
| COC(=O)C[C@@H]1N=C(c2ccc(-c3ccc(C(=O)N[C@H](C(=O)N4C[C@H](O)C[C@H]4C(=O)NCc4ccc(-c5ocnc5C)cc4)C(C)(C)C)cc3)cc2)c2c(sc(C)c2C)-n2c(C)nnc21 [Example 218, methyl {(6S)-4-[4′-({(2S)-1-[(2S,4R)-4-hydroxy-2-({[4-(4-methyl-1,3-oxazol-5-yl)phenyl]methyl}carbamoyl)pyrrolidin-1-yl]-3,3-dimethyl-1-oxobutan-2-yl}carbamoyl) [1,1′-biphenyl]-4-yl]-2,3,9-trimethyl-6H-thieno [3,2-f][1,2,4]triazolo [4,3-a] [1,4]diazepin-6-yl}acetate] | 0.41 | 0.37 |
| CCOC(=O)c1ncsc1-c1ccc(CNC(=O)[C@@H]2C[C@@H](O)CN2C(=O)[C@@H](NC(=O)c2ccc(-c3ccc(C4=N[C@@H](CC(=O)OC)c5nnc(C)n5-c5sc(C)c(C)c54)cc3)cc2)C(C)(C)C)cc1 [Example 219, ethyl 5-{4-[({(2S,4R)-4-hydroxy-1-[(2S)-2-({4′-[(6S)-6-(2-methoxy-2-oxoethyl)-2,3,9-trimethyl-6H-thieno[3,2-f] [1,2,4]triazolo[4,3-a][1,4]diazepin-4-yl][1,1′-biphenyl]-4-carbonyl}amino)-3,3-dimethylbutanoyl]pyrrolidine-2-carbonyl}amino)methyl]phenyl}-1,3-thiazole-4-carboxylate] | 0.52 | 0.52 |
| COC(=O)C[C@@H]1N=C(c2ccc(-c3ccc(C(=O)N[C@H](C(=O)N4C[C@H](O)C[C@H]4C(=O)NCc4ccc(-c5scnc5CO)cc4)C(C)(C)C)cc3)cc2)c2c(sc(C)c2C)-n2c(C)nnc21 [Example 220, methyl [(6S)-4-(4′-{[(2S)-1-{(2S,4R)-4-hydroxy-2-[({4-[4-(hydroxymethyl)-1,3-thiazol-5-yl]phenyl}methyl)carbamoyl]pyrrolidin-1-yl}-3,3-dimethyl-1-oxobutan-2-yl]carbamoyl}[1,1′-biphenyl]-4-yl)-2,3,9-trimethyl-6H-thieno[3,2-f][1,2,4]triazolo[4,3-a][1,4]diazepin-6-yl]acetate] | 0.92 | 0.92 |
| COC(=O)C[C@@H]1N=C(c2ccc(N3CC[C@H](C(=O)NCCOc4ccc5oc(C(=O)N[C@H](C(=O)N6C[C@H](O)C[C@H]6C(=O)N[C@@H](C)c6ccc(-c7scnc7C)cc6)C(C)(C)C)cc5c4)C3)cc2)c2c(sc(C)c2C)-n2c(C)nnc21 [Example Compound 68, methyl [(6S)-4-(4-{(3S)-3-[(2-{[2-({(2S)-1-[(2S,4R)-4-hydroxy-2-({(1S)-1-[4-(4-methyl-1,3-thiazol-5-yl)phenyl]ethyl}carbamoyl)pyrrolidin-1-yl]-3,3-dimethyl-1-oxobutan-2-yl}carbamoyl)-1-benzofuran-5-yl]oxy}ethyl)carbamoyl]pyrrolidin-1-yl}phenyl)-2,3,9-trimethyl-6H-thieno[3,2-f][1,2,4]triazolo[4,3-a][1,4]diazepin-6-yl]acetate] | 0.46 | 0.52 |

These reach a lower DC50 (BRD4 protein). Values come first.

| DC50 (BRD4 protein) [nM] | SMILES | IC50 [1] [nM] |
| --- | --- | --- |
| 0.37 | Cc1ncsc1-c1ccc([C@H](C)NC(=O)[C@@H]2C[C@@H](O)CN2C(=O)[C@@H](NC(=O)/C=C/c2ccc(C3=N[C@@H](C)c4nnc(C)n4-c4sc(C)c(C)c43)cc2)C(C)(C)C)cc1 [Example 201, (2S,4R)-1-[(2S)-3,3-dimethyl-2-{[(2E)-3-{4-[(6S)-2,3,6,9-tetramethyl-6H-thieno[3,2-f][1,2,4]triazolo[4,3-a] [1,4]diazepin-4-yl]phenyl}prop-2-enoyl]amino}butanoyl]-4-hydroxy-N-{(1S)-1-[4-(4-methyl-1,3-thiazol-5-yl)phenyl]ethyl}pyrrolidine-2-carboxamide] | 0.34 |
| 0.32 | COC(=O)C[C@@H]1N=C(c2ccc(-c3ccc(C(=O)N[C@H](C(=O)N4C[C@H](O)C[C@H]4C(=O)N[C@@H](C)c4ccc(-c5scnc5C)cc4)C(C)(C)C)cc3)cc2)c2c(sc(CO)c2C)-n2c(C)nnc21 [Example 209, methyl {(6S)-2-(hydroxymethyl)-4-[4′-({(2S)-1-[(2S,4R)-4-hydroxy-2-({(1S)-1-[4-(4-methyl-1,3-thiazol-5-yl)phenyl]ethyl}carbamoyl)pyrrolidin-1-yl]-3,3-dimethyl-1-oxobutan-2-yl}carbamoyl)[1,1′-biphenyl]-4-yl]-3,9-dimethyl-6H-thieno[3,2-f][1,2,4]triazolo[4,3-a][1,4]diazepin-6-yl}acetate] | 0.24 |
| 0.26 | COC(=O)C[C@@H]1N=C(c2ccc(-c3ccc(C(=O)N[C@H](C(=O)N4C[C@H](O)C[C@H]4C(=O)N[C@@H](C)c4ccc(-c5scnc5C)cc4)C(C)C)cc3)cc2)c2c(sc(C)c2C)-n2c(C)nnc21 [Example 210, methyl {(6S)-4-[4′-({(2S)-1-[(2S,4R)-4-hydroxy-2-({(1S)-1-[4-(4-methyl-1,3-thiazol-5-yl)phenyl]ethyl}carbamoyl)pyrrolidin-1-yl]-3-methyl-1-oxobutan-2-yl}carbamoyl)[1,1′-biphenyl]-4-yl]-2,3,9-trimethyl-6H-thieno[3,2-f][1,2,4]triazolo[4,3-a][1,4]diazepin-6-yl}acetate] | 0.29 |
| 0.33 | COC(=O)C[C@@H]1N=C(c2ccc(-c3ccc(C(=O)N[C@H](C(=O)N4C[C@H](O)C[C@H]4C(=O)N[C@@H](CO)c4ccc(-c5scnc5C)cc4)C(C)(C)C)cc3)cc2)c2c(sc(C)c2C)-n2c(C)nnc21 [Example 215, methyl {(6S)-4-[4′-({(2S)-1-[(2S,4R)-4-hydroxy-2-({(1R)-2-hydroxy-1-[4-(4-methyl-1,3-thiazol-5-yl)phenyl]ethyl}carbamoyl)pyrrolidin-1-yl]-3,3-dimethyl-1-oxobutan-2-yl}carbamoyl)[1,1′-biphenyl]-4-yl]-2,3,9-trimethyl-6H-thieno[3,2-f][1,2,4]triazolo[4,3-a][1,4]diazepin-6-yl}acetate] | 0.31 |
| 0.15 | COC(=O)C[C@@H]1N=C(c2ccc(N3CC[C@@H](OCC(=O)N[C@H](C(=O)N4C[C@H](O)C[C@H]4C(=O)N[C@@H](C)c4ccc(-c5scnc5C)cc4)C(C)(C)C)C3)cc2)c2c(sc(C)c2C)-n2c(C)nnc21 [Example Compound 69, methyl [(6S)-4-(4-{(3R)-3-[2-({(2S)-1-[(2S,4R)-4-hydroxy-2-({(1S)-1-[4-(4-methyl-1,3-thiazol-5-yl)phenyl]ethyl}carbamoyl)pyrrolidin-1-yl]-3,3-dimethyl-1-oxobutan-2-yl}amino)-2-oxoethoxy]pyrrolidin-1-yl}phenyl)-2,3,9-trimethyl-6H-thieno[3,2-f][1,2,4]triazolo[4,3-a][1,4]diazepin-6-yl]acetate] | 0.33 |
